Data taken from patent US20190161499A1, “PESTICIDALLY ACTIVE 1,2,4-TRIAZOLE DERIVATIVES” (SYNGENTA PARTICIPATIONS AG, priority 2015, published 2019).

Legend:
Assay type in all cases: in vivo
[1] = test system: Spodoptera littoralis (Egyptian Cotton Leaf Worm); test: Comparison: insecticidal activity against Spodoptera littoralis; details: 72 h, 3 days after infestation
Procedure: (§1) Compound B is disclosed in WO2013/063282 as an example on page 114 (Table 4, M is CH(Me), Rx=2-F, Ry=4-Cl) and compound C is disclosed in WO 2013/173218 as example on page 123 (Table 14, M is CH(Me), R4a=2-F, R4b=4-Cl). The activities of compounds B and C to treat different pests are compared with the activities of compound A according to the present invention. The tests are carried out at different concentrations (ppm).
a) Insecticidal Activity Against Spodoptera littoralis (Egyptian Cotton Leaf Worm)
Cotton leaf discs were placed onto agar in 24-well microtiter plates and sprayed with aqueous test solutions prepared from 10,000 ppm DMSO stock solutions. After drying the leaf discs were infested with five L1 larvae. The samples were assessed for mortality 3 days after infestation.

[2] = test system: Diabrotica Balteata (Corn Root Worm); test: Comparison: insecticidal activity against Diabrotica balteata; details: 96 h, 4 days after infestation
Procedure: as §1
c) Insecticidal Activity Against Diabrotica Balteata (Corn Root Worm):
Maize sprouts, placed on an agar layer in 24-well microtiter plates were treated with aqueous test solutions prepared from 10,000 ppm DMSO stock solutions by spraying. After drying, the plates were infested with L2 larvae (6 to 10 per well). The samples were assessed for mortality and growth inhibition in comparison to untreated samples 4 days after infestation.

[3] = test system: Plutella xylostella (Diamond Back Moth); test: Comparison: insecticidal activity against Plutella xylostella; details: 120 h, 5 days after infestation
Procedure: as §1
b) Insecticidal Activity Against Plutella xylostella (Diamond Back Moth):
24-well microtiter plates with artificial diet were treated with aqueous test solutions prepared from 10,000 ppm DMSO stock solutions by pipetting. After drying, the plates were infested with L2 larvae (10 to 15 per well). The samples were assessed for mortality and growth inhibition in comparison to untreated samples 5 days after infestation.

Compound | mortality at 12.5 ppm [1] | mortality at 50 ppm [1] | mortality at 200 ppm [1] | mortality at 12.5 ppm [2] | mortality at 50 ppm [2] | mortality at 200 ppm [2] | mortality at 12.5 ppm [3] | mortality at 50 ppm [3] | mortality at 200 ppm [3]
CC1CCN(Cc2nc(-c3ccc(Cl)cc3)nn2-c2ccccc2F)CC1 [A] | 100% | 100% | 100% | 100% | 100% | 100% | 50% | 100% | 100%
CC1CCN(Cc2cn(-c3ccc(Cl)cc3)nc2-c2ccccc2F)CC1 [Compound B] | 0% | 0% | 100% | 0% | 100% | 100% | 0% | 0% | 0%
CC1CCN(Cc2nn(-c3ccc(Cl)cc3)nc2-c2ccccc2F)CC1 [Compound C] | 0% | 0% | 50% | 0% | 100% | 100% | 0% | 0% | 0%
